# Experimental data as given in US9271960B2, “Tetrahydrocarbazoles as active agents for inhibiting VEGF production by translational control” (PTC Therapeutics, Inc., priority 2004, dated 2016).
# Tested on: VEGF
# Assay: Hypoxia-inducible endogenous VEGF expression ELISA in HeLa cells
# Type: cell-based
# Conditions: Homo sapiens, HeLa, compounds 1-155, hypoxic conditions (1% O2), VEGF protein by ELISA, read-out: ELISA Activity
# Protocol: The ability of compounds of the invention to modulate hypoxia-inducible endogenous VEGF expression is analyzed as follows. VEGF protein levels are monitored by an ELISA assay (R&D Systems). Briefly, HeLa cells are cultured for 24-48 hours under hypoxic conditions (1% O2, 5% CO2, balanced with nitrogen) in the presence or absence of a compound of the invention. The conditioned media is then assayed by ELISA, and the concentration of VEGF is calculated from the standard ELISA curve of each assay.
# A dose-response analysis is performed using the ELISA assay and conditions described above. A series of different concentrations (e.g., seven) are analyzed. In parallel, a dose-response cytotoxicity assay is performed using Cell Titer Glo (Promega) under the same conditions as the ELISA to ensure that the inhibition of VEGF expression is not due to cytotoxicity. Dose-response curves are plotted using percentage inhibition versus concentration of the compound, and EC50 and CC50 values are generated for each compound with the maximal inhibition set as 100% and the minimal inhibition as 0%.
# Compounds 156-188 in Table 1 are commercially available. In Table 1, each of the represented compounds is followed by one to five stars.
row,SMILES,EC50
1,"COc1ccc2[nH]c3c(c2c1)CCCC3N (stereo not drawn) [Compound 95, 6-Methoxy-2,3,9-tetrahydro-1H-carbazol-1-ylamine]",> 1 µM
2,"c1ccc2c3c([nH]c2c1)C(n1cccc1)CCC3 (stereo not drawn) [Compound 102, 1-Pyrrol-1-yl-2,3,4,9-tetrahydro-1H-carbazole]",> 1 µM
3,"c1ccn(C2CCCc3c2[nH]c2ccc(N4CCOCC4)cc32)c1 (stereo not drawn) [Compound 104, 6-Morpholin-4-yl-1-pyrrol-1-yl-2,3,4,9-tetrahydro-1H-carbazole]",> 1 µM
4,"O=C1CCCc2c1oc1ccc(Br)cc21 [Compound 105, 8-Bromo-2,3-dihydro-1H-dibenzofuran-4-one]",> 1 µM
5,"c1ccn(C2CCCc3c2[nH]c2ccc(N4CCCC4)cc32)c1 (stereo not drawn) [Compound 106, 6-Pyrrolidin-1-yl-1-pyrrol-1-yl-2,3,4,9-tetrahydro-1H-carbazole]",> 1 µM
6,"Brc1ccc2oc3c(c2c1)CCCC3Nc1ccccc1 (stereo not drawn) [Compound 107, (8-Bromo-1,2,3,4-tetrahydro-dibenzofuran-4-yl)-phenyl-amine]",> 1 µM
7,"OC1CCCc2c1oc1ccc(Br)cc21 (stereo not drawn) [Compound 108, 8-Bromo-1,2,3,4-tetrahydro-dibenzofuran-4-ol]",> 1 µM
8,"Brc1ccc2[nH]c3c(c2c1)CCc1cnn(-c2ccccc2)c1-3 [Compound 109, 7-Bromo-1-phenyl-1,4,5,10-tetrahydro-1,2,10-triaza-cyclopenta[a]fluorine]",> 1 µM
9,"O=C1CCCc2c1[nH]c1cc(Br)ccc21 [Compound 110, 7-Bromo-2,3,4,9-tetrahydro-carbazol-1-one]",> 1 µM
10,"Brc1ccc2[nH]c3c(c2c1)CCCC3c1nnc(-c2ccccc2)o1 (stereo not drawn) [Compound 111, 6-Bromo-1-(5-phenyl-[1,3,4]oxadiazol-2-yl)-2,3,4,9-tetrahydro-1H-carbazole]",> 1 µM
11,"O=C1N(c2ccccc2)C2CCCc3c2n1c1ccc(Br)cc31 (stereo not drawn) [Compound 112, 7-Bromo-2-phenyl-2a,3,4,5-tetrahydro-2H-2,9b-diaza-cyclopenta[jk]fluoren-1-one]",> 1 µM
12,"O=C(O)c1ccn(C2CCCc3c2[nH]c2ccc(Br)cc32)c1 (stereo not drawn) [Compound 113, 1-(6-Bromo-2,3,4,9-tetrahydro-1H-carbazol-1-yl)-1H-pyrrole-3-carboxylic acid]",> 1 µM
13,"Brc1ccc2[nH]c3c(c2c1)CCCC3NCCCn1ccnc1 (stereo not drawn) [Compound 114, (6-Bromo-2,3,4,9-tetrahydro-1H-carbazol-1-yl)-(3-imidazol-1-yl-propyl)-amine]",> 1 µM
14,"COC(=O)c1ccc2[nH]c3c(c2c1)CCCC3n1cccc1 (stereo not drawn) [Compound 115, 8-Pyrrol-1-yl-6,7,8,9-tetrahydro-5H-carbazole-3-carboxylic acid methyl ester]",> 1 µM
15,"Brc1ccc2[nH]c3c(c2c1)CCCC3N1CCCC1 (stereo not drawn) [Compound 116, 6-Bromo-1-pyrrolidin-1-yl-2,3,4,9-tetrahydro-1H-carbazole]",> 1 µM
16,"Cn1c2c(c3cc(Br)ccc31)CCCC2n1cccc1 (stereo not drawn) [Compound 117, 6-Bromo-9-methyl-1-pyrrol-1-yl-2,3,4,9-tetrahydro-1H-carbazole]",> 1 µM
17,"Brc1cccc2c3c([nH]c12)C(n1cccc1)CCC3 (stereo not drawn) [Compound 118, 8-Bromo-1-pyrrol-1-yl-2,3,4,9-tetrahydro-1H-carbazole]",> 1 µM

# Now from value to molecule:
row,EC50,SMILES
1,> 1 µM,"CC(C)(C)CCNC1CCCc2c1[nH]c1ccc(Br)cc21 (stereo not drawn) [Compound 79, (6-Bromo-2,3,4,9-tetrahydro-1H-carbazol-1-yl)-(3,3-dimethyl-butyl)-amine]"
2,> 1 µM,"CC(C)(C)OC(=O)n1c2c(c3cc(Br)ccc31)CCCC2=O [Compound 80, 6-Bromo-1-oxo-1,2,3,4-tetrahydro-carbazole-9-carboxylic acid tert-butyl ester]"
3,> 1 µM,"O=C(Nc1ccccc1)NC1CCCc2c1[nH]c1ccc(Br)cc21 (stereo not drawn) [Compound 81, 1-(6-Bromo-2,3,4,9-tetrahydro-1H-carbazol 1-yl)-3-phenyl-urea]"
4,> 1 µM,"Brc1ccc2[nH]c3c(c2c1)CCCC3 [Compound 83, 6-Bromo-2,3,4,9-tetrahydro-1H-carbazole]"
5,> 1 µM,"COc1ccc2[nH]c3c(c2c1)CCC/C3=N\O [Compound 84, 6-Methoxy-2,3,4,9-tetrahydro-carbazol-1 one oxime]"
6,> 1 µM,"O=C(O)C1CCCc2c1[nH]c1ccc(Br)cc21 (stereo not drawn) [Compound 85, 6-Bromo-2,3,4,9-tetrahydro-1H-carbazole-1-carboxylic acid]"
7,> 1 µM,"CC(=O)n1c2c(c3cc(Br)ccc31)CCCC2 [Compound 86, 1-(6-Bromo-1,2,3,4-tetrahydro-carbazol-9-yl)-ethanone]"
8,> 1 µM,"O/N=C1\CCCc2c1[nH]c1ccc(Br)cc21 [Compound 87, 6-Bromo-2,3,4,9-tetrahydro-carbazol-1-one oxime]"
9,> 1 µM,"Cn1c2c(c3cc(Br)ccc31)CCCC2=O [Compound 88, 6-Bromo-9-methyl-2,3,4,9-tetrahydro-carbazol-1-one]"
10,> 1 µM,"NC1CCCc2c1[nH]c1ccc(Br)cc21 (stereo not drawn) [Compound 89, 6-Bromo-2,3,4,9-tetrahydro-1H-carbazol-1-ylamine]"
11,> 1 µM,"CCOC(=O)C1CCCc2c1[nH]c1ccc(Br)cc21 (stereo not drawn) [Compound 90, 6-Bromo-2,3,4,9-tetrahydro-1H-carbazole-1-carboxylic acid ethyl ester]"
12,> 1 µM,"O=C(Nc1ccccc1)C1CCCc2c1[nH]c1ccc(Br)cc21 (stereo not drawn) [Compound 91, 6-Bromo-2,3,4,9-tetrahydro-1H-carbazole-1-carboxylic acid phenylamide]"
13,> 1 µM,"O/N=C1\CCCc2c1[nH]c1cc(Br)ccc21 [Compound 92, 7-Bromo-2,3,4,9-tetrahydro-carbazol-1-one oxime]"
14,> 1 µM,O/N=C1\CCCc2c1[nH]c1ccc(Cl)cc21 [Compound 93]
15,> 1 µM,"NC1CCCc2c1[nH]c1cc(Br)ccc21 (stereo not drawn) [Compound 94, 7-Bromo-2,3,4,9-tetrahydro-1H-carbazol-1-ylamine; compound with methane]"
16,> 1 µM,"NC1CCCc2c1[nH]c1ccc(Cl)cc21 (stereo not drawn) [Compound 96, 6-Chloro-2,3,4,9-tetrahydro-1H-carbazol-1-ylamine]"
17,> 1 µM,"O=C1CCCc2c1[nH]c1c(Br)cccc21 [Compound 97, 8-Bromo-2,3,4,9-tetrahydro-carbazol-1-one]"
18,> 1 µM,"O/N=C1\CCCc2c1[nH]c1c(Br)cccc21 [Compound 98, 8-Bromo-2,3,4,9-tetrahydro-carbazol-1-one oxime]"
19,> 1 µM,"NC1CCCc2c1[nH]c1c(Br)cccc21 (stereo not drawn) [Compound 99, 8-Bromo-2,3,4,9-tetrahydro-1H-carbazol-1-ylamine]"
20,> 1 µM,"Cc1nnc(C2CCCc3c2[nH]c2ccc(Br)cc32)o1 (stereo not drawn) [Compound 100, 6-Bromo-1-(5-methyl-[1,3,4]oxadiazol-2-yl)-2,3,4,9-tetrahydro-1H-carbazole]"
21,> 1 µM,"c1ccc2c3c([nH]c2c1)C(Nn1cccc1)CCC3 (stereo not drawn) [Compound 101, Pyrrol-1-yl-(2,3,4,9-tetrahydro-1H-carbazol-1-yl)-amine]"
22,0.2 to 1 µM,"Cc1nnsc1C(=O)NC1CCCc2c1[nH]c1ccc(Br)cc21 (stereo not drawn) [Compound 103, 4-Methyl-[1,2,3]thiadiazole-5-carboxylic acid (6-bromo-2,3,4,9-tetrahydro-1H-carbazol-1-yl)-amide]"
